“Also recorded” adds a separate entry of the source.
Columns and labels:
[1] = test system: human embryonic stem cell line H1; experiment: Real-time PCR of marker genes in H1 cells differentiated as in Example 2, T3 added at Stages 4 through 6; type: cell-based
Protocol: (§1) All primers were purchased from Applied Biosystems.
(§2) Cultures were differentiated into cells expressing markers characteristic of pancreatic endoderm/endocrine precursor cells by the protocol outlined below. • a. […] SD208 is 2-(5-Chloro-2-fluorophenyl)pteridin-4-yl]pyridin-4-yl-amine) having the structure of formula I, and disclosed in Molecular Pharmacology 2007, 72:152-161. SD208 is a 2,4-disubstituted pteridine, ATP-competitive inhibitor of the TGF-βR I kinase.
(§3) In some cultures, 1 μM T3 (T6397, Sigma, MO) was added at Stages 4 through 6. At the end of Stages 4 through 6, the control and treated cultures were analyzed by FACS and immunostaining. Furthermore, mRNA was collected for the control and treated cultures at Stages 2 through 6.

[2] = test system: human embryonic stem cell line H1; experiment: Immunostaining for HB9 and NKX6.1 at Stage 6, control vs T3 treated cultures (Example 2); type: cell-based
Protocol: as §1, §2, §3

[3] = test system: human embryonic stem cell line H1; experiment: Immunostaining for NKX6.1 and HB9 at Stage 6 day 6, T3 dose response (Example 4); type: cell-based; settings: 0-1000 nM T3 at Stages 5 and 6, dose dependent
Description: as §1
Forty-eight hours post-seeding, cultures were washed in incomplete PBS (phosphate buffered saline without Mg or Ca). Cultures were differentiated into cells expressing markers characteristic of pancreatic endoderm/endocrine precursor cells by the protocol outlined below. • a.

[4] = T3 vs T4; cited from earlier work
[5] = in the blood; cited from earlier work
[6] = 1 μM T3 added at Stages 4 through 6, real-time PCR
[7] = 1 μM T3 added at Stages 4 through 6, real-time PCR vs control
[8] = 1 μM T3 addition, real-time PCR

| Compound | insulin expression ([1]; 1 μM T3 added at Stages 4 through 6, at Stage 5, real-time PCR) | NKX2.2 expression [1, 6] | NKX6.1 expression [1, 6] | PDX1 expression [1, 6] | ghrelin expression [1, 7] | glucagon expression [1, 7] | somatostatin expression [1, 7] | CDX2 (intestine marker) expression [1, 8] | SOX2 (stomach marker) expression [1, 8] | albumin (liver marker) expression [1, 8] | number of HB9 positive cells ([2]; Stage 6, T3 treated group vs control) | number of NKX6.1 positive cells showing expression of HB9 ([2]; T3 treated cultures) | number of HB9 positive cells in the NKX6.1 positive pancreatic endoderm precursor cells [3] | potency relative to T4 [4] | half-life relative to T3 [5] |
| --- | --- | --- | --- | --- | --- | --- | --- | --- | --- | --- | --- | --- | --- | --- | --- |
| N[C@@H](Cc1cc(I)c(Oc2ccc(O)c(I)c2)c(I)c1)C(=O)O [T3, triiodothyronine] | moderately increasing | significantly decreased | apparently not affecting | apparently not affecting | significantly down regulated | significantly down regulated | significantly down regulated | not affecting | suppressed | suppressed | increases; also recorded: significant increase | increased number | significantly enhanced | three to four times more potent than T4 | – |
| N[C@@H](Cc1cc(I)c(Oc2cc(I)c(O)c(I)c2)c(I)c1)C(=O)O [T4, thyroxine] | – | – | – | – | – | – | – | – | – | – | – | – | – | – | longer half-life than T3 |
